Experimental data: ChEMBL document CHEMBL6182888, “Design, synthesis, and biological activity study of 6,7-dimethoxy-1,2,3,4-tetrahydroisoquinoline derivatives against multidrug resistance in Eca109/VCR cells” (Eur J Med Chem, 2025)

Key:
Eca-109/VCR = experiment: Cytotoxicity against human Eca-109/VCR cells assessed as reduction in cell viability at 5.0 uM incubated for 48 hrs by CCK-8 assay relative to control; type: functional
[1] = Reversal fold, ratio of vincristine IC50 to vincristine IC50 in presence of test compound for reversal of drug resistance in human Eca-109/VCR cells at 5 uM incubated for 48 hrs by CCK-8 assay; type: functional

| Structure (SMILES) | Cell viability (% of control) (Eca-109/VCR) [%] | Ratio IC50 [1] |
| --- | --- | --- |
| CCCCCCCCOc1ccc(CC2c3cc(OC)c(OC)cc3CCN2C)cc1OC (centres undefined) | 94.7 | 82.6 |
| CCCCCCCCOc1cc(CC2c3cc(OC)c(OC)cc3CCN2C)ccc1OC (centres undefined) | 95.3 | 159 |
| COc1cc2c(cc1OC)C(Cc1ccc(OC)c(OCCCc3ccccc3)c1)N(C)CC2 (centres undefined) | 96.9 | 124.1 |
| CCOCCOCCOc1cc(CC2c3cc(OC)c(OC)cc3CCN2C)ccc1OC (centres undefined) | 103.1 | 2.2 |
| COc1cc2c(cc1OC)C(Cc1ccc(OS(=O)(=O)c3ccc4ccccc4c3)c(OC)c1)N(C)CC2 (centres undefined) | 84.7 | 362.1 |
| COc1cc2c(cc1OC)C(Cc1ccc(OC)c(OS(=O)(=O)Cc3ccccc3)c1)N(C)CC2 (centres undefined) | 101.5 | 180 |
| COc1cc2c(cc1OC)C(Cc1ccc(OCC3CC3)c(OC)c1)N(C)CC2 (centres undefined) | 104.2 | 1.5 |
| COc1cc2c(cc1OC)C(Cc1ccc(OC)c(OCc3ccc(Cl)cc3Cl)c1)N(C)CC2 (centres undefined) | 55.4 | 412.3 |
| COc1cc2c(cc1OC)C(Cc1ccc(OCCC(C)C)c(OC)c1)N(C)CC2 (centres undefined) | 105.5 | 227.1 |
| COc1cc2c(cc1OC)C(Cc1ccc(OC)c(OC(=O)C3CCCCC3)c1)N(C)CC2 (centres undefined) | 103.6 | 4.5 |
| COc1cc2c(cc1OC)C(Cc1ccc(OS(=O)(=O)c3ccc(C(F)(F)F)cc3)c(OC)c1)N(C)CC2 (centres undefined) | 90.4 | 307.4 |
| COC(=O)c1sccc1S(=O)(=O)Oc1ccc(CC2c3cc(OC)c(OC)cc3CCN2C)cc1OC (centres undefined) | 101.9 | 182.2 |
| COc1cc2c(cc1OC)C(Cc1ccc(OCCCc3ccccc3)c(OC)c1)N(C)CC2 (centres undefined) | 103.3 | 162.4 |
| COc1cc2c(cc1OC)C(Cc1ccc(OC)c(OS(=O)(=O)c3ccccc3)c1)N(C)CC2 (centres undefined) | 102.6 | 24 |
| COc1cc2c(cc1OC)C(Cc1ccc(OCCc3ccccc3)c(OC)c1)N(C)CC2 (centres undefined) | 104.2 | 1.8 |
| COc1cc2c(cc1OC)C(Cc1ccc(OC)c(OCc3ccc(Br)cc3)c1)N(C)CC2 (centres undefined) | 97.8 | 158 |
| COc1cc2c(cc1OC)C(Cc1ccc(OCc3ccc(Br)cc3)c(OC)c1)N(C)CC2 (centres undefined) | 91.1 | 201.2 |
| COc1cc2c(cc1OC)C(Cc1ccc(OS(=O)(=O)Cc3ccccc3)c(OC)c1)N(C)CC2 (centres undefined) | 102.6 | 171.6 |
| COc1cc2c(cc1OC)C(Cc1ccc(OC)c(OS(=O)(=O)c3ccc(C#N)cc3)c1)N(C)CC2 (centres undefined) | 96 | 235.4 |
| CCOCCOCCOc1ccc(CC2c3cc(OC)c(OC)cc3CCN2C)cc1OC (centres undefined) | 103.6 | 8.5 |
| COc1cc2c(cc1OC)C(Cc1ccc(OC)c(OCC3CCC3)c1)N(C)CC2 (centres undefined) | 102.7 | 122.6 |
| COc1cc2c(cc1OC)C(Cc1ccc(OC)c(OS(=O)(=O)c3ccccc3[N+](=O)[O-])c1)N(C)CC2 (centres undefined) | 102 | 253.3 |
| COC(=O)c1sccc1S(=O)(=O)Oc1cc(CC2c3cc(OC)c(OC)cc3CCN2C)ccc1OC (centres undefined) | 100.7 | 12.3 |
| COc1cc2c(cc1OC)C(Cc1ccc(OCc3ccccc3)c(OC)c1)N(C)CC2 (centres undefined) | 101.4 | 80.3 |
| COc1cc2c(cc1OC)C(Cc1ccc(OS(=O)(=O)c3ccc([N+](=O)[O-])cc3)c(OC)c1)N(C)CC2 (centres undefined) | 105.6 | 172.2 |
| COc1cc2c(cc1OC)C(Cc1ccc(OCc3ccc(Cl)cc3Cl)c(OC)c1)N(C)CC2 (centres undefined) | 92.4 | 307.6 |
| COc1cc2c(cc1OC)C(Cc1ccc(OC)c(OCC3CC3)c1)N(C)CC2 (centres undefined) | 105.6 | 6.3 |
